In patent US20090275655A1, “Pharmaceutical Gallium Compositions and Methods” (priority 2008, published 2009):

Assay: intravenous infusion in a cystic fibrosis patient, concentration of ionic gallium in sputum, plasma and whole blood
Type: in vivo, human patient
Procedure: During one such treatment, this patient received an infusion of gallium citrate-nitrate over 5 days at a dose of 240 mg/day, or approximately 150 mg/m^2/day, and the concentration of ionic gallium in a deep-cough sputum specimen was then measured. The gallium concentration in the sputum was 3.2 μg/ml, or approximately 46 μmol/L, which is a concentration that is adequate to kill resistant Pseudomonas organisms in vivo. See Kaneko et al., J. Clin. Invest. 117:877-888 (2007).
Beginning about 1 month later, the same patient from Example 4 was given additional infusions of gallium citrate-nitrate at doses of 200 mg/m^2/day over 5 days, and the concentration of ionic gallium in deep-cough sputum specimens was again determined. […] The concentrations at days 5-11 are high, and even after cessation of treatment they remain levels that are believed to be therapeutic in vivo.

[1] = Treatment Number Two, 200 mg/m^2/d, end of infusion, Day 5 (verification repeat)

## gallium citrate-nitrate
Treatment Number One, 150 mg/m^2/d, end of infusion, Day 5
  gallium concentration, Sputum: 2.22 µg/mL
Treatment Number Two, 200 mg/m^2/d, end of infusion, Day 5
  gallium concentration, Sputum: 2.13 µg/mL
Treatment Number Two, 200 mg/m^2/d, end of infusion, Day 5 20:00 h
  gallium concentration, Whole Blood: 1.64 µg/mL
[1]
  gallium concentration, Plasma: 1.35 µg/mL
  gallium concentration, Sputum: 2.65 µg/mL
Treatment Number Two, Baseline (Time 0), one month after Treatment One
  gallium concentration, Sputum: 0.32 µg/mL
Treatment Number Two, Post-Infusion, Day 6
  gallium concentration, Sputum: 1.83 µg/mL
Treatment Number Two, Post-Infusion, Day 7
  gallium concentration, Sputum: 2.04 µg/mL
Treatment Number Two, Post-Infusion, Day 9
  gallium concentration, Sputum: 4.35 µg/mL
Treatment Number Two, Post-Infusion, Day 11
  gallium concentration, Sputum: 4.78 µg/mL
patient, following systemic (IV) administration
  sputum levels exceed plasma concentrations: roughly 2 fold
